Results: the NIST ThermoML archive (doi:10.1021/je800224k)

Conditions: Liquid

CCCCCCn1cc[n+](C)c1.F[P-](F)(F)(F)(F)F [1-hexyl-3-methylimidazolium hexafluorophosphate]
Conditions | mass density [kg/m3]
293.15 K, 101.33 kPa, Vibrating tube method | 1297
312.9 K, 10000 kPa, Bellows volumetry | 1287
312.9 K, 20000 kPa, Bellows volumetry | 1292
312.9 K, 30000 kPa, Bellows volumetry | 1298
312.9 K, 40000 kPa, Bellows volumetry | 1303
312.9 K, 50000 kPa, Bellows volumetry | 1308
312.9 K, 60000 kPa, Bellows volumetry | 1313
312.9 K, 70000 kPa, Bellows volumetry | 1318
312.9 K, 80000 kPa, Bellows volumetry | 1322
312.9 K, 90000 kPa, Bellows volumetry | 1327
312.9 K, 100000 kPa, Bellows volumetry | 1331
312.9 K, 110000 kPa, Bellows volumetry | 1335
312.9 K, 120000 kPa, Bellows volumetry | 1339
312.9 K, 130000 kPa, Bellows volumetry | 1343
312.9 K, 140000 kPa, Bellows volumetry | 1347
312.9 K, 150000 kPa, Bellows volumetry | 1351
312.9 K, 160000 kPa, Bellows volumetry | 1355
312.9 K, 170000 kPa, Bellows volumetry | 1358
312.9 K, 180000 kPa, Bellows volumetry | 1362
312.9 K, 190000 kPa, Bellows volumetry | 1366
312.9 K, 200000 kPa, Bellows volumetry | 1369
313.15 K, 101.33 kPa, Vibrating tube method | 1280.7
332.6 K, 10000 kPa, Bellows volumetry | 1271
332.6 K, 20000 kPa, Bellows volumetry | 1277
332.6 K, 30000 kPa, Bellows volumetry | 1283
332.6 K, 40000 kPa, Bellows volumetry | 1289
332.6 K, 50000 kPa, Bellows volumetry | 1294
332.6 K, 60000 kPa, Bellows volumetry | 1299
332.6 K, 70000 kPa, Bellows volumetry | 1304
332.6 K, 80000 kPa, Bellows volumetry | 1309
332.6 K, 90000 kPa, Bellows volumetry | 1313
332.6 K, 100000 kPa, Bellows volumetry | 1318
332.6 K, 110000 kPa, Bellows volumetry | 1322
332.6 K, 120000 kPa, Bellows volumetry | 1326
332.6 K, 130000 kPa, Bellows volumetry | 1330
332.6 K, 140000 kPa, Bellows volumetry | 1334
332.6 K, 150000 kPa, Bellows volumetry | 1338
332.6 K, 160000 kPa, Bellows volumetry | 1342
332.6 K, 170000 kPa, Bellows volumetry | 1346
332.6 K, 180000 kPa, Bellows volumetry | 1350
332.6 K, 190000 kPa, Bellows volumetry | 1353
332.6 K, 200000 kPa, Bellows volumetry | 1357
333.15 K, 101.33 kPa, Vibrating tube method | 1265.1
352.7 K, 10000 kPa, Bellows volumetry | 1256
352.7 K, 20000 kPa, Bellows volumetry | 1262
352.7 K, 30000 kPa, Bellows volumetry | 1268
352.7 K, 40000 kPa, Bellows volumetry | 1274
352.7 K, 50000 kPa, Bellows volumetry | 1280
352.7 K, 60000 kPa, Bellows volumetry | 1285
352.7 K, 70000 kPa, Bellows volumetry | 1290
352.7 K, 80000 kPa, Bellows volumetry | 1295
352.7 K, 90000 kPa, Bellows volumetry | 1300
352.7 K, 100000 kPa, Bellows volumetry | 1305
352.7 K, 110000 kPa, Bellows volumetry | 1309
352.7 K, 120000 kPa, Bellows volumetry | 1314
352.7 K, 130000 kPa, Bellows volumetry | 1318
352.7 K, 140000 kPa, Bellows volumetry | 1322
352.7 K, 150000 kPa, Bellows volumetry | 1326
352.7 K, 160000 kPa, Bellows volumetry | 1330
352.7 K, 170000 kPa, Bellows volumetry | 1334
352.7 K, 180000 kPa, Bellows volumetry | 1338
352.7 K, 190000 kPa, Bellows volumetry | 1342
352.7 K, 200000 kPa, Bellows volumetry | 1345
353.15 K, 101.33 kPa, Vibrating tube method | 1249.8
372.9 K, 10000 kPa, Bellows volumetry | 1241
372.9 K, 20000 kPa, Bellows volumetry | 1248
372.9 K, 30000 kPa, Bellows volumetry | 1254
372.9 K, 40000 kPa, Bellows volumetry | 1260
372.9 K, 50000 kPa, Bellows volumetry | 1266
372.9 K, 60000 kPa, Bellows volumetry | 1271
372.9 K, 70000 kPa, Bellows volumetry | 1277
372.9 K, 80000 kPa, Bellows volumetry | 1282
372.9 K, 90000 kPa, Bellows volumetry | 1287
372.9 K, 100000 kPa, Bellows volumetry | 1292
372.9 K, 110000 kPa, Bellows volumetry | 1296
372.9 K, 120000 kPa, Bellows volumetry | 1301
372.9 K, 130000 kPa, Bellows volumetry | 1306
372.9 K, 140000 kPa, Bellows volumetry | 1310
372.9 K, 150000 kPa, Bellows volumetry | 1314
372.9 K, 160000 kPa, Bellows volumetry | 1318
372.9 K, 170000 kPa, Bellows volumetry | 1322
372.9 K, 180000 kPa, Bellows volumetry | 1326
372.9 K, 190000 kPa, Bellows volumetry | 1330
372.9 K, 200000 kPa, Bellows volumetry | 1334
393 K, 10000 kPa, Bellows volumetry | 1226
393 K, 20000 kPa, Bellows volumetry | 1233
393 K, 30000 kPa, Bellows volumetry | 1240
393 K, 40000 kPa, Bellows volumetry | 1246
393 K, 50000 kPa, Bellows volumetry | 1252
393 K, 60000 kPa, Bellows volumetry | 1258
393 K, 70000 kPa, Bellows volumetry | 1264
393 K, 80000 kPa, Bellows volumetry | 1269
393 K, 90000 kPa, Bellows volumetry | 1274
393 K, 100000 kPa, Bellows volumetry | 1279
393 K, 110000 kPa, Bellows volumetry | 1284
393 K, 120000 kPa, Bellows volumetry | 1289
393 K, 130000 kPa, Bellows volumetry | 1293
393 K, 140000 kPa, Bellows volumetry | 1298
393 K, 150000 kPa, Bellows volumetry | 1302
393 K, 160000 kPa, Bellows volumetry | 1306
393 K, 170000 kPa, Bellows volumetry | 1310
393 K, 180000 kPa, Bellows volumetry | 1314
393 K, 190000 kPa, Bellows volumetry | 1318
393 K, 200000 kPa, Bellows volumetry | 1322
412.9 K, 10000 kPa, Bellows volumetry | 1211
412.9 K, 20000 kPa, Bellows volumetry | 1219
412.9 K, 30000 kPa, Bellows volumetry | 1226
412.9 K, 40000 kPa, Bellows volumetry | 1232
412.9 K, 50000 kPa, Bellows volumetry | 1239
412.9 K, 60000 kPa, Bellows volumetry | 1245
412.9 K, 70000 kPa, Bellows volumetry | 1251
412.9 K, 80000 kPa, Bellows volumetry | 1256
412.9 K, 90000 kPa, Bellows volumetry | 1262
412.9 K, 100000 kPa, Bellows volumetry | 1267
412.9 K, 110000 kPa, Bellows volumetry | 1272
412.9 K, 120000 kPa, Bellows volumetry | 1277
412.9 K, 130000 kPa, Bellows volumetry | 1282
412.9 K, 140000 kPa, Bellows volumetry | 1286
412.9 K, 150000 kPa, Bellows volumetry | 1291
412.9 K, 160000 kPa, Bellows volumetry | 1295
412.9 K, 170000 kPa, Bellows volumetry | 1299
412.9 K, 180000 kPa, Bellows volumetry | 1303
412.9 K, 190000 kPa, Bellows volumetry | 1307
412.9 K, 200000 kPa, Bellows volumetry | 1311
432.8 K, 10000 kPa, Bellows volumetry | 1197
432.8 K, 20000 kPa, Bellows volumetry | 1205
432.8 K, 30000 kPa, Bellows volumetry | 1212
432.8 K, 40000 kPa, Bellows volumetry | 1219
432.8 K, 50000 kPa, Bellows volumetry | 1226
432.8 K, 60000 kPa, Bellows volumetry | 1232
432.8 K, 70000 kPa, Bellows volumetry | 1238
432.8 K, 80000 kPa, Bellows volumetry | 1244
432.8 K, 90000 kPa, Bellows volumetry | 1250
432.8 K, 100000 kPa, Bellows volumetry | 1255
432.8 K, 110000 kPa, Bellows volumetry | 1260
432.8 K, 120000 kPa, Bellows volumetry | 1265
432.8 K, 130000 kPa, Bellows volumetry | 1270
432.8 K, 140000 kPa, Bellows volumetry | 1275
432.8 K, 150000 kPa, Bellows volumetry | 1279
432.8 K, 160000 kPa, Bellows volumetry | 1284
432.8 K, 170000 kPa, Bellows volumetry | 1288
432.8 K, 180000 kPa, Bellows volumetry | 1292
432.8 K, 190000 kPa, Bellows volumetry | 1297
432.8 K, 200000 kPa, Bellows volumetry | 1301
452.5 K, 10000 kPa, Bellows volumetry | 1183
452.5 K, 20000 kPa, Bellows volumetry | 1191
452.5 K, 30000 kPa, Bellows volumetry | 1199
452.5 K, 40000 kPa, Bellows volumetry | 1206
452.5 K, 50000 kPa, Bellows volumetry | 1213
452.5 K, 60000 kPa, Bellows volumetry | 1219
452.5 K, 70000 kPa, Bellows volumetry | 1226
452.5 K, 80000 kPa, Bellows volumetry | 1232
452.5 K, 90000 kPa, Bellows volumetry | 1237
452.5 K, 100000 kPa, Bellows volumetry | 1243
452.5 K, 110000 kPa, Bellows volumetry | 1248
452.5 K, 120000 kPa, Bellows volumetry | 1254
452.5 K, 130000 kPa, Bellows volumetry | 1259
452.5 K, 140000 kPa, Bellows volumetry | 1263
452.5 K, 150000 kPa, Bellows volumetry | 1268
452.5 K, 160000 kPa, Bellows volumetry | 1273
452.5 K, 170000 kPa, Bellows volumetry | 1277
452.5 K, 180000 kPa, Bellows volumetry | 1282
452.5 K, 190000 kPa, Bellows volumetry | 1286
452.5 K, 200000 kPa, Bellows volumetry | 1290
472.3 K, 10000 kPa, Bellows volumetry | 1169
472.3 K, 20000 kPa, Bellows volumetry | 1177
472.3 K, 30000 kPa, Bellows volumetry | 1185
472.3 K, 40000 kPa, Bellows volumetry | 1193
472.3 K, 50000 kPa, Bellows volumetry | 1200
472.3 K, 60000 kPa, Bellows volumetry | 1207
472.3 K, 70000 kPa, Bellows volumetry | 1213
472.3 K, 80000 kPa, Bellows volumetry | 1220
472.3 K, 90000 kPa, Bellows volumetry | 1226
472.3 K, 100000 kPa, Bellows volumetry | 1231
472.3 K, 110000 kPa, Bellows volumetry | 1237
472.3 K, 120000 kPa, Bellows volumetry | 1242
472.3 K, 130000 kPa, Bellows volumetry | 1247
472.3 K, 140000 kPa, Bellows volumetry | 1253
472.3 K, 150000 kPa, Bellows volumetry | 1257
472.3 K, 160000 kPa, Bellows volumetry | 1262
472.3 K, 170000 kPa, Bellows volumetry | 1267
472.3 K, 180000 kPa, Bellows volumetry | 1271
472.3 K, 190000 kPa, Bellows volumetry | 1276
472.3 K, 200000 kPa, Bellows volumetry | 1280
